Laboratory results taken from PubChem BioAssay (NCI).
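Briefly, cells in 96-well plates were exposed to five compound concentrations for 48 h, and endpoints were estimated by linear interpolation. GI50 is the concentration that inhibits growth by half. TGI marks complete inhibition of growth.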

Assays:
Assay in all cases: growth of human tumour cells (NCI), 48 h
COLO 205 colon = system: COLO 205 colon
HCT-116 colon = system: HCT-116 colon
HT29 colon = system: HT29 colon
M14 melanoma = system: M14 melanoma
NCI-H226 lung = system: NCI-H226 lung
NCI-H522 lung = system: NCI-H522 lung
SK-MEL-5 melanoma = system: SK-MEL-5 melanoma
SN12C renal = system: SN12C renal

Structure (SMILES)	TGI (COLO 205 colon)	TGI (HCT-116 colon)	TGI (HT29 colon)	TGI (M14 melanoma)	TGI (NCI-H226 lung)	TGI (NCI-H522 lung)	TGI (SK-MEL-5 melanoma)	TGI (SN12C renal)	GI50 (COLO 205 colon)	GI50 (HCT-116 colon)	GI50 (HT29 colon)	GI50 (M14 melanoma)	GI50 (NCI-H226 lung)	GI50 (NCI-H522 lung)	GI50 (SK-MEL-5 melanoma)	GI50 (SN12C renal)
COc1ccccc1NC(=O)CC(=O)N/N=C/c1ccc(N(CCC#N)S(=O)(=O)c2ccccc2)cc1	> 100 µM	> 100 µM	> 100 µM	> 100 µM	> 100 µM	> 100 µM	> 100 µM									
O=C(NC12CC3CC(CC(C3)C1)C2)C(=O)c1c[nH]c2ccccc12	33.5 µM	30.5 µM	15 µM	29.3 µM		31.7 µM	30.4 µM	30.4 µM								
COc1cccc(NC(=O)/C(Cc2nc3ccccc3nc2C)=N/NC(=O)C[n+]2ccccc2)c1	44.6 µM	> 100 µM	> 100 µM	> 100 µM	> 100 µM		> 100 µM	> 100 µM								
COc1ccc(OCC(=O)O)c(C(=O)CCC(=O)O)c1	> 100 µM	> 100 µM	> 100 µM	> 10 µM	> 100 µM	> 100 µM	> 100 µM	> 100 µM								
COC(C)(C)C/C=C/C(C)=C/C=C/C(C)=C\C=C\C(C)=C\C=C\C=C(C)\C=C\C=C(C)\C=C\C=C(C)\C=C\CC(C)(C)OC	> 150 µg/mL	> 150 µg/mL	> 150 µg/mL	> 150 µg/mL	> 150 µg/mL	> 150 µg/mL	> 150 µg/mL	> 150 µg/mL	> 150 µg/mL	> 150 µg/mL	> 150 µg/mL	> 150 µg/mL	> 150 µg/mL	> 150 µg/mL	> 150 µg/mL	> 150 µg/mL
O=c1c2cc(Cl)ccc2sc2cccc(Cl)c12	> 100 µM	> 100 µM	> 100 µM	> 100 µM	> 100 µM	> 100 µM		> 100 µM								
CCN(CC)c1ccc(N=Nc2ccc(-c3nc4ccc[n+](C)c4o3)cc2)cc1	5.41 µM	16.3 µM	24.3 µM	24.8 µM	27.6 µM	18.5 µM	11 µM	45.5 µM								
N#CC1CCCCCCCCCCC(=O)N(CCCl)C1=O (centres undefined)	> 100 µM		> 100 µM	> 100 µM		> 100 µM	> 100 µM	> 100 µM								
Cc1cc(C)cc(NC(N)=S)c1	59.1 µM	> 100 µM	> 100 µM	> 100 µM	> 100 µM	> 100 µM	> 100 µM	> 100 µM								
CC(=O)C1=C(O)CC2CC3c4[nH]c5ccccc5c4CCN3CC2C1 (centres undefined)	> 100 µM	> 100 µM	> 100 µM	> 100 µM	> 100 µM	> 100 µM	> 100 µM	> 100 µM								
COC(=O)Nc1nc2ccc(Br)cc2[nH]1	> 100 µM	> 100 µM	37.4 µM	> 100 µM	> 100 µM	32.8 µM	> 100 µM	> 100 µM								
CN(C)CC/[N+]([O-])=C(/c1ccccc1)C12CC3CC(CC(C3)C1)C2	30.3 µM	32 µM	23.8 µM	26.8 µM	27.5 µM	29.2 µM	32 µM	31.9 µM								
O=C(c1ccccc1)c1cn(/N=C\c2ccccc2)c(=O)nc1-c1ccccc1	> 100 µM	> 100 µM	> 100 µM	> 100 µM	> 100 µM	> 100 µM	> 100 µM	> 100 µM								
CN1C(=O)C2C(C1=O)C1(O)c3ccccc3C2(N)c2ccccc21 (centres undefined)	> 100 µM	> 100 µM	> 100 µM	> 100 µM	> 100 µM		> 100 µM	> 100 µM								
O=C(O)CCc1nn2c(nc1=O)sc1ccc3ccccc3c12	> 100 µM	> 100 µM	> 100 µM	> 100 µM	> 100 µM		> 100 µM	> 100 µM								
NC(N)=NS(=O)(=O)c1ccc(Nc2c3ccccc3nc3c(C(=O)Nc4ccc(S(N)(=O)=O)cc4)cccc23)cc1	> 100 µM	> 100 µM	> 100 µM	> 100 µM		68.7 µM	> 100 µM	> 100 µM								
Cc1cc2c(C)nn(Cc3ccc(Cl)cc3)c2c(C#N)c1C	> 100 µM	> 100 µM			> 100 µM			> 100 µM								
Clc1ccc(C(n2cc(Br)cn2)n2cc(Br)cn2)cc1	33.8 µM		26.9 µM	35.2 µM	22.5 µM	27.7 µM	27.2 µM	32.3 µM								
CC(C)OP(=O)(NC(=S)c1ccccc1)OC(C)C	> 100 µM	> 100 µM	> 100 µM	> 100 µM	> 100 µM		> 100 µM	> 100 µM								
COc1cc2c(cc1OC)/C(=C\c1ccccc1N)C(=O)OC2	28.8 µM		30.4 µM	55.4 µM		3.47 µM	32.6 µM	31.4 µM								
O=c1cccccc1[O-].O=c1cccccc1[O-].O=c1cccccc1[O-].[La+3]		31.2 µM	> 100 µM	53.8 µM	99 µM	84.2 µM	22.4 µM	> 100 µM								22.3 µM
